Experimental data as given in article PMC9116245, “New 1,2,3-triazole linked ciprofloxacin-chalcones induce DNA damage by inhibiting human topoisomerase I& II and tubulin polymerization” (Journal of Enzyme Inhibition and Medicinal Chemistry, 2022).

Experiments:
A498 = assay: NCI one-dose screen; assay type: cell-based; details: Homo sapiens; A498, 10 µM; read-out: Growth Percent
Method in brief: (§1)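 Single-dose NCI-60 protocol: compounds tested at 10 µM across the cancer cell-line panel. Value reported as growth percent relative to untreated control.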

A549/ATCC = assay: NCI one-dose screen; assay type: cell-based; details: Homo sapiens, read-out: Growth Percent
Method in brief: as §1

ACHN = assay: NCI one-dose screen; assay type: cell-based; details: Homo sapiens, read-out: Growth Percent
Method in brief: as §1

CCRF-CEM = assay: NCI one-dose screen; assay type: cell-based; details: Homo sapiens, read-out: Growth Percent
Method in brief: as §1

COLO 205 = assay: NCI one-dose screen; assay type: cell-based; details: Homo sapiens; COLO 205, 10 µM; read-out: Growth Percent
Method in brief: as §1

HCC-2998 = assay: NCI one-dose screen; assay type: cell-based; details: Homo sapiens; HCC-2998, 10 µM; read-out: Growth Percent
Method in brief: as §1

HCT-15 = assay: NCI one-dose screen; assay type: cell-based; details: Homo sapiens; HCT-15, 10 µM; read-out: Growth Percent
Method in brief: as §1

HL-60(TB) = assay: NCI one-dose screen; assay type: cell-based; details: Homo sapiens, read-out: Growth Percent
HOP-62 = assay: NCI one-dose screen; assay type: cell-based; details: Homo sapiens; HOP-62, 10 µM; read-out: Growth Percent
Method in brief: as §1

HOP-92 = assay: NCI one-dose screen; assay type: cell-based; details: Homo sapiens; HOP-92, 10 µM; read-out: Growth Percent
Method in brief: as §1

HS 578T = assay: NCI one-dose screen; assay type: cell-based; details: Homo sapiens, read-out: Growth Percent
Method in brief: as §1

LOX IMVI = assay: NCI one-dose screen; assay type: cell-based; details: Homo sapiens, read-out: Growth Percent
Method in brief: as §1

M14 = assay: NCI one-dose screen; assay type: cell-based; details: Homo sapiens; M14, 10 µM; read-out: Growth Percent
Method in brief: as §1

MALME-3M = assay: NCI one-dose screen; assay type: cell-based; details: Homo sapiens, read-out: Growth Percent
Method in brief: as §1

MCF7 = assay: NCI one-dose screen; assay type: cell-based; details: Homo sapiens; MCF7, 10 µM; read-out: Growth Percent
Method in brief: as §1

MDA-MB-435 = assay: NCI one-dose screen; assay type: cell-based; details: Homo sapiens; MDA-MB-435, 10 µM; read-out: Growth Percent
Method in brief: as §1

MDA-MB-468 = assay: NCI one-dose screen; assay type: cell-based; details: Homo sapiens; MDA-MB-468, 10 µM; read-out: Growth Percent
Method in brief: as §1

NCI-H23 = assay: NCI one-dose screen; assay type: cell-based; details: Homo sapiens; NCI-H23, 10 µM; read-out: Growth Percent
Method in brief: as §1

NCI-H460 = assay: NCI one-dose screen; assay type: cell-based; details: Homo sapiens; NCI-H460, 10 µM; read-out: Growth Percent
Method in brief: as §1

NCI-H522 = assay: NCI one-dose screen; assay type: cell-based; details: Homo sapiens; NCI-H522, 10 µM; read-out: Growth Percent
Method in brief: as §1

NCI/ADR-RES = assay: NCI one-dose screen; assay type: cell-based; details: Homo sapiens, read-out: Growth Percent
Method in brief: as §1

OVCAR-4 = assay: NCI one-dose screen; assay type: cell-based; details: Homo sapiens; OVCAR-4, 10 µM; read-out: Growth Percent
Method in brief: as §1

PC-3 = assay: NCI one-dose screen; assay type: cell-based; details: Homo sapiens; PC-3, 10 µM; read-out: Growth Percent
Method in brief: as §1

RXF 393 = assay: NCI one-dose screen; assay type: cell-based; details: Homo sapiens; RXF 393, 10 µM; read-out: Growth Percent
Method in brief: as §1

SF-268 = assay: NCI one-dose screen; assay type: cell-based; details: Homo sapiens; SF-268, 10 µM; read-out: Growth Percent
Method in brief: as §1

SF-295 = assay: NCI one-dose screen; assay type: cell-based; details: Homo sapiens; SF-295, 10 µM; read-out: Growth Percent
Method in brief: as §1

SK-MEL-5 = assay: NCI one-dose screen; assay type: cell-based; details: Homo sapiens; SK-MEL-5, 10 µM; read-out: Growth Percent
Method in brief: as §1

T-47D = assay: NCI one-dose screen; assay type: cell-based; details: Homo sapiens, T47D, read-out: Growth Percent
Method in brief: as §1

UO-31 = assay: NCI one-dose screen; assay type: cell-based; details: Homo sapiens; UO-31, 10 µM; read-out: Growth Percent
Method in brief: as §1

ATR/CHK1/Cdc25C pathway = assay: Western blot of ATR-Chk1-Cdc25C cascade in HCT116 cells; assay type: cell-based, human
Description: To clarify the molecular mechanism responsible for inducing G2/M phase arrest in HCT116 following the treatment with the synthesised compounds, the signalling in the checkpoint pathway that regulates the G2/M transition was investigated. The mammalian cells respond to the DNA damage through 2 different kinase-signalling cascades (ATR-Chk1 and ATM-Chk2). First, the effect of the synthesised compounds on ATM and ATR phosphorylation was tested. […] Then, the phosphorylation of downstream effectors of ATM/ATR, phospho-Chk1-S269, and phospho-Chk2-T68 kinases was explored. […] It is well known that in vitro activation of Chk1 phosphorylates Cdc25C on serine-216. Therefore, the impact of the synthesised compounds on the Cdc25C phosphorylation at Ser-216 was investigated.
Western blotting analysis for HCT116 cells was performed according to the reported procedure in the literature[77–79] to determine the effects of CP hybrids; 4a, 4b, 4e, 4i, and 4j on the expression of polymerised tubulin, γH2AX, p-ATR, p-CHK1, and p-Cdc25C by using the appropriate antibody. See Supplementary Appendix A.

| SMILES | activity at 10 µM (A498) [%] | activity at 10 µM (A549/ATCC) [%] | activity at 10 µM (ACHN) [%] | activity at 10 µM (CCRF-CEM) [%] | activity at 10 µM (COLO 205) [%] | activity at 10 µM (HCC-2998) [%] | activity at 10 µM (HCT-15) [%] | activity at 10 µM (HL-60(TB)) [%] | activity at 10 µM (HOP-62) [%] | activity at 10 µM (HOP-92) [%] | activity at 10 µM (HS 578T) [%] | activity at 10 µM (LOX IMVI) [%] | activity at 10 µM (M14) [%] | activity at 10 µM (MALME-3M) [%] | activity at 10 µM (MCF7) [%] | activity at 10 µM (MDA-MB-435) [%] | activity at 10 µM (MDA-MB-468) [%] | activity at 10 µM (NCI-H23) [%] | activity at 10 µM (NCI-H460) [%] | activity at 10 µM (NCI-H522) [%] | further results |
| --- | --- | --- | --- | --- | --- | --- | --- | --- | --- | --- | --- | --- | --- | --- | --- | --- | --- | --- | --- | --- | --- |
| O=C(/C=C/c1ccc(F)cc1)c1ccc(-n2cc(CN3CCN(c4cc5c(cc4F)c(=O)c(C(=O)O)cn5C4CC4)CC3)nn2)cc1 [Compound 4e, (E)-1-cyclopropyl-6-fluoro-7–(4-((1–(4-(3-(4-fluorophenyl)acryloyl)phenyl)-1H-1,2,3-triazol-4-yl)methyl)piperazin-1-yl)-4-oxo-1,4-dihydroquinoline-3-carboxylic acid] | 61.1 | 82.2 | 88.5 | 20 | 105 | 79.3 | 63.4 | 84.6 | 67.3 | 50.3 | 57.5 | 20.3 | 60.9 | 89.2 | 24.2 | 64.7 | 32.9 | 80.3 | 32.5 | 48.5 | activity at 10 µM (NCI/ADR-RES): 92.1%; activity at 10 µM (OVCAR-4): 93.1%; activity at 10 µM (PC-3): 57.4%; activity at 10 µM (RXF 393): 45%; activity at 10 µM (SF-268): 35.7%; activity at 10 µM (SF-295): 81.2%; activity at 10 µM (SK-MEL-5): 79%; activity at 10 µM (T-47D): 76.8%; activity at 10 µM (UO-31): 62.8%; expressions of p-ATR, p-CHK1, and p-Cdc25C, Western blot (ATR/CHK1/Cdc25C pathway): increased |
| COc1ccc(/C=C/C(=O)c2ccc(-n3cc(CN4CCN(c5cc6c(cc5F)c(=O)c(C(=O)O)cn6C5CC5)CC4)nn3)cc2)cc1OC [Compound 4i, (E)-1-cyclopropyl-7-(4-((1-(4-(3–(3,4-dimethoxyphenyl)acryloyl)phenyl)-1H-1,2,3-triazol-4-yl)methyl)piperazin-1-yl)-6-fluoro-4-oxo-1,4-dihydroquinoline-3-carboxylic acid] | 68.2 | 66.1 | 85 | 44 | 98.2 | 44 | 80.6 | 85.9 | 75.6 | 66.5 | 52.8 | 27.9 | 59 | 66.2 | 13.2 | 22.2 | 26.3 | 78.7 | 77.9 | 67.6 | activity at 10 µM (NCI/ADR-RES): 90.7%; activity at 10 µM (OVCAR-4): 88%; activity at 10 µM (PC-3): 56.3%; activity at 10 µM (RXF 393): 64.2%; activity at 10 µM (SF-268): 56%; activity at 10 µM (SF-295): 94.9%; activity at 10 µM (SK-MEL-5): 69%; activity at 10 µM (T-47D): 78.6%; activity at 10 µM (UO-31): 54.9%; expressions of p-ATR, p-CHK1, and p-Cdc25C, Western blot (ATR/CHK1/Cdc25C pathway): increased |
